Common to all, as to type: in vivo
For experiment [1], the system named is Beet Armyworm (Spodoptera exigua). Put plainly: Bioassay on Beet Armyworm (BAW), 128-well diet tray assay. As to conditions: Beet Armyworm, Table ABC, read-out: BAW rating. The procedure, abridged:
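Second-instar larvae (one to five per well) placed on artificial diet surface-treated with 50 μg/cm^2 test molecule in 90:10 acetone-water, dried, eight wells per molecule. Held at 25° C, 14:10 light-dark, five to seven days; percent mortality recorded per well and averaged across the eight wells.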

Experiment [2] concerns Cabbage Looper (Trichoplusia ni). In words: Bioassay on Cabbage Looper (CL), 128-well diet tray assay. As to conditions: Cabbage Looper, Table ABC, read-out: CL rating. The gist of the method: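 Second-instar larvae, one to five per well, placed on artificial diet surface-treated with 50 μg/cm^2 compound in acetone-water, eight wells per compound. Held 5-7 days at 25° C, 14:10 light-dark; percent mortality per well averaged across wells.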

Experiment [3] has as its system Green Peach Aphid (Myzus persicae). In words: Bioassay on Green Peach Aphid (GPA), foliar spray on cabbage seedlings. Particulars: 72 h, Table ABC, read-out: GPA rating. As for the experimental part: Example B: Bioassays on Green Peach Aphid (Myzus Persicae, MYZUPE) (“GPA”) Certain molecules disclosed in this document were tested against GPA using procedures described in the following example. In the reporting of the results, the “GPA & YFM Rating Table” was used (See Table Section). Cabbage seedlings grown in 3-inch pots, with 2-3 small (3-5 cm) true leaves, were used as test substrate. The seedlings were infested with 20-50 GPA (wingless adult and nymph stages) one day prior to chemical application. Four pots with individual seedlings were used for each treatment. Test molecules (2 mg) were dissolved in 2 mL of acetone/methanol (1:1) solvent, forming stock solutions of 1000 ppm test molecule. The stock solutions were diluted 5× with 0.025% Tween 20 in water to obtain the solution at 200 ppm test molecule. A hand-held aspirator-type sprayer was used for spraying a solution to both sides of […] leaves until runoff. Reference plants (solvent check) were sprayed with the diluent only containing 20% by volume of acetone/methanol (1:1) solvent. Treated plants were held in a holding room for three days at approximately 25° C. and ambient relative humidity (RH) prior to grading. Evaluation was conducted by counting the number of live aphids per plant under a microscope. Percent Control was measured by using Abbott's correction formula (W. S. Abbott, “A Method of Computing the Effectiveness of an Insecticide” J. Econ. Entomol. 18 (1925), pp. 265-267) as follows. Corrected % Control=100*(X−Y)/X • where • X=No. of live aphids on solvent check plants and • Y=No. of live aphids on treated plants The results are indicated in the table entitled “Table ABC: Biological Results” (See Table Section).

Experiment [4] concerns Yellow Fever Mosquito (Aedes aegypti). Put plainly: Bioassay on Yellow Fever Mosquito (YFM) larvae, 96-well plate. As to conditions: Table ABC. The procedure, abridged: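 About 1-day-old larvae in water with liver powder were added to wells holding compound from a 4000 ppm DMSO master diluted in 90:10 water:acetone. Plates covered and kept at room temperature for 3 days, then each well scored for mortality on a rating scale.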

Molecules are shown by their SMILES.

`O=C(CNC(=O)c1ccc(/C(F)=C/C(c2cc(F)c(F)c(F)c2)C(F)(F)F)cc1C(F)(F)F)NCC(F)(F)F` (centres unmarked) [F160, (Z)—N-(2-Oxo-2-((2,2,2-trifluoroethyl)amino)ethyl)-4-(1,4,4,4-tetrafluoro-3-(3,4,5-trifluorophenyl)but-1-en-1-yl)-2-(trifluoromethyl)benzamide]: the pest or weed control at 50 µg/cm2 in experiment [1] and in experiment [2] was 50 to 100% throughout. Also, the pest or weed control at 200 µg/mL in experiment [3] lay within 80 to 100%. The YFM rating entry in experiment [4] is recorded as “A (80-100)”.

In the case of `Cc1cc(C(/C=C(\F)c2ccc(C(=O)NC3(C(=O)N(C)CC(F)(F)F)CC3)c(C(F)(F)F)c2)C(F)(F)F)cc(Cl)c1Cl` (centres unmarked) [PF16, (Z)-4-(3-(3,4-Dichloro-5-methylphenyl)-1,4,4,4-tetrafluorobut-1-en-1-yl)-N-(1-(methyl(2,2,2-trifluoroethyl)carbamoyl)cyclopropyl)-2-(trifluoromethyl)benzamide], the pest or weed control at 50 µg/cm2 in experiment [1] and in experiment [2] was 50 to 100% each time. The pest or weed control at 200 µg/mL in experiment [3] is 0 to 80%. In addition, the YFM rating entry in experiment [4] was “A (80-100)”.

For the compound `O=C(N[C@@H]1CON(CC(F)(F)F)C1=O)c1ccc(/C(F)=C/C(c2cc(F)c(F)c(F)c2)C(F)(F)F)cc1C(F)(F)F` (stereo partly drawn) [F155, N—((R)-3-Oxo-2-(2,2,2-trifluoroethyl)isoxazolidin-4-yl)-4-((Z)-1,4,4,4-tetrafluoro-3-(3,4,5-trifluorophenyl)but-1-en-1-yl)-2-(trifluoromethyl)benzamide], the pest or weed control at 50 µg/cm2 in experiment [1] and in experiment [2] was 50 to 100% each time. The pest or weed control at 200 µg/mL in experiment [3] fell in the range of 80 to 100%. In addition, the YFM rating result in experiment [4] is listed as “A (80-100)”.

As for `C=CCc1c(Cl)cc(C(/C=C(\F)c2ccc(C(=O)N[C@H](C)C(=O)NCC(F)(F)F)c(C(F)(F)F)c2)C(F)(F)F)cc1Cl` (stereo partly drawn) [F146, 4-((Z)-3-(4-Allyl-3,5-dichlorophenyl)-1,4,4,4-tetrafluorobut-1-en-1-yl)-N—((R)-1-oxo-1-((2,2,2-trifluoroethyl)amino)propan-2-yl)-2-(trifluoromethyl)benzamide], the pest or weed control at 50 µg/cm2 in experiment [1] and in experiment [2] was 50 to 100% each time. The pest or weed control at 200 µg/mL in experiment [3] fell in the range of 0 to 80%. Moreover, the YFM rating entry in experiment [4] is on record as “B (More than 0-Less than 80)”.

For the compound `O=C(NC1(C(=O)NCC(F)(F)F)CC1)c1ccc(/C(F)=C/C(c2cc(Cl)c(Cl)c(Cl)c2)C(F)(F)F)cc1C(F)(F)F` (centres unmarked) [F3, (Z)-4-(1,4,4,4-Tetrafluoro-3-(3,4,5-trichlorophenyl)but-1-en-1-yl)-N-(1-((2,2,2-trifluoroethyl)carbamoyl)cyclopropyl)-2-(trifluoromethyl)benzamide], the pest or weed control at 50 µg/cm2 in experiment [1] and in experiment [2] was 50 to 100% each time. Also, in experiment [3], the pest or weed control at 200 µg/mL is 80 to 100%.

Turning to `O=C(NC1(C(=O)NCC(F)(F)F)CC1)c1ccc(/C(F)=C/C(c2cc(Cl)cc(Br)c2)C(F)(F)F)cc1C(F)(F)F` (centres unmarked) [PF32, (Z)-4-(3-(3-Bromo-5-chlorophenyl)-1,4,4,4-tetrafluorobut-1-en-1-yl)-N-(1-((2,2,2-trifluoroethyl)carbamoyl)cyclopropyl)-2-(trifluoromethyl)benzamide], the pest or weed control at 200 µg/mL in experiment [3] fell in the range of 0 to 80%.

As for `O=C(N[C@@H]1CON(CC(F)(F)F)C1=O)c1ccc(/C(F)=C/C(c2ccc(C(F)(F)F)c(Cl)c2)C(F)(F)F)cc1C(F)(F)F` (stereo partly drawn) [F180, 4-((Z)-3-(3-Chloro-4-(trifluoromethyl)phenyl)-1,4,4,4-tetrafluorobut-1-en-1-yl)-N—((R)-3-oxo-2-(2,2,2-trifluoroethyl)isoxazolidin-4-yl)-2-(trifluoromethyl)benzamide], the pest or weed control at 50 µg/cm2 in experiment [1] and in experiment [2] was 50 to 100% throughout. Further, the pest or weed control at 200 µg/mL in experiment [3] fell in the range of 80 to 100%.

As to `O=C(NC1(C(=O)NCC(F)(F)F)CC1)c1ccc(/C(F)=C/C(c2ccc(Cl)c(Br)c2)C(F)(F)F)cc1C(F)(F)F` (centres unmarked) [F139, (Z)-4-(3-(3-Bromo-4-chlorophenyl)-1,4,4,4-tetrafluorobut-1-en-1-yl)-N-(1-((2,2,2-trifluoroethyl)carbamoyl)cyclopropyl)-2-(trifluoromethyl)benzamide], the pest or weed control at 50 µg/cm2 in experiment [1] and in experiment [2] was 50 to 100% in each case. Also, in experiment [4], the YFM rating result is on record as “A (80-100)”.

`O=C(NC1(C(=O)NCC(F)(F)F)CC1)c1ccc(/C(F)=C/C(c2ccc(Br)c(Br)c2)C(F)(F)F)cc1C(F)(F)F` (centres unmarked) [F80, (Z)-4-(3-(3,4-Dibromophenyl)-1,4,4,4-tetrafluorobut-1-en-1-yl)-N-(1-((2,2,2-trifluoroethyl)carbamoyl)cyclopropyl)-2-(trifluoromethyl)benzamide]: the pest or weed control at 50 µg/cm2 in experiment [1] and in experiment [2] was 50 to 100% each time. The YFM rating entry in experiment [4] was “A (80-100)”.

As for `C[C@@H](NC(=O)c1ccc(/C(F)=C/C(c2ccc(C(F)(F)F)c(Cl)c2)C(F)(F)F)cc1C(F)(F)F)C(=O)NCC(F)(F)F` (stereo partly drawn) [F205, 4-((Z)-3-(3-Chloro-4-(trifluoromethyl)phenyl)-1,4,4,4-tetrafluorobut-1-en-1-yl)-N—((R)-1-oxo-1-((2,2,2-trifluoroethyl)amino)propan-2-yl)-2-(trifluoromethyl)benzamide], the pest or weed control at 50 µg/cm2 in experiment [1] and in experiment [2] was 50 to 100% each time. The YFM rating entry in experiment [4] is “B (More than 0-Less than 80)”.

On to `CC(=O)CNC(=O)CNC(=O)c1ccc(/C(F)=C/C(c2cc(Cl)c(Cl)c(Cl)c2)C(F)(F)F)cc1C(F)(F)F` (centres unmarked) [F163, (Z)—N-(2-Oxo-2-((2-oxopropyl)amino)ethyl)-4-(1,4,4,4-tetrafluoro-3-(3,4,5-trichlorophenyl)but-1-en-1-yl)-2-(trifluoromethyl)benzamide], for which the pest or weed control at 50 µg/cm2 in experiment [1] and in experiment [2] was 50 to 100% in each case. The YFM rating entry in experiment [4] was “A (80-100)”.

As to `C[C@@H](NC(=O)c1ccc(/C(F)=C/C(c2cc(Cl)cc(Br)c2)C(F)(F)F)cc1C(F)(F)F)C(=O)N(C)CC(F)(F)F` (stereo partly drawn) [PF31, 4-((Z)-3-(3-Bromo-5-chlorophenyl)-1,4,4,4-tetrafluorobut-1-en-1-yl)-N—((R)-1-(methyl(2,2,2-trifluoroethyl)amino)-1-oxopropan-2-yl)-2-(trifluoromethyl)benzamide], the pest or weed control at 50 µg/cm2 in experiment [1] and in experiment [2] was 50 to 100% each time. Moreover, the YFM rating result in experiment [4] was “B (More than 0-Less than 80)”.

As to `C[C@@H](NC(=O)c1ccc(/C(F)=C/C(c2ccc(C(F)(F)F)c(Br)c2)C(F)(F)F)cc1C(F)(F)F)C(=O)NCC(F)(F)F` (stereo partly drawn) [F208, 4-((Z)-3-(3-Bromo-4-(trifluoromethyl)phenyl)-1,4,4,4-tetrafluorobut-1-en-1-yl)-N—((R)-1-oxo-1-((2,2,2-trifluoroethyl)amino)propan-2-yl)-2-(trifluoromethyl)benzamide], the pest or weed control at 50 µg/cm2 in experiment [1] and in experiment [2] was 50 to 100% throughout. The YFM rating result in experiment [4] is “A (80-100)”.

Turning to `Cc1cc(C(/C=C(\F)c2ccc(C(=O)NC3(C(=O)NCC(F)(F)F)CC3)c(C(F)(F)F)c2)C(F)(F)F)cc(C)c1Cl` (centres unmarked) [F70, (Z)-4-(3-(4-Chloro-3,5-dimethylphenyl)-1,4,4,4-tetrafluorobut-1-en-1-yl)-N-(1-((2,2,2-trifluoroethyl)carbamoyl)cyclopropyl)-2-(trifluoromethyl)benzamide], the pest or weed control at 50 µg/cm2 in experiment [1] and in experiment [2] was 50 to 100% in each case. In addition, the YFM rating entry in experiment [4] is listed as “A (80-100)”.

As for `O=C(NC1(C(=O)NCC(F)(F)F)CC1)c1ccc(/C(F)=C/C(c2cc(Cl)c(Br)c(Cl)c2)C(F)(F)F)cc1C(F)(F)F` (centres unmarked) [F60, (Z)-4-(3-(4-Bromo-3,5-dichlorophenyl)-1,4,4,4-tetrafluorobut-1-en-1-yl)-N-(1-((2,2,2-trifluoroethyl)carbamoyl)cyclopropyl)-2-(trifluoromethyl)benzamide], the pest or weed control at 50 µg/cm2 in experiment [1] and in experiment [2] was 50 to 100% throughout. Besides, the YFM rating result in experiment [4] is on record as “A (80-100)”.

With `C[C@@H](NC(=O)c1ccc(/C(F)=C/C(c2cc(Br)cc(Br)c2)C(F)(F)F)cc1C(F)(F)F)C(=O)N(C)CC(F)(F)F` (stereo partly drawn) [F83, 4-((Z)-3-(3,5-Dibromophenyl)-1,4,4,4-tetrafluorobut-1-en-1-yl)-N—((R)-1-(methyl(2,2,2-trifluoroethyl)amino)-1-oxopropan-2-yl)-2-(trifluoromethyl)benzamide], the pest or weed control at 50 µg/cm2 in experiment [1] and in experiment [2] was 50 to 100% in each case. For the same compound, the YFM rating entry in experiment [4] is given as “A (80-100)”.

For the origin of these results see patent US10251394B2, “Molecules having pesticidal utility, and intermediates, compositions, and processes, related thereto” (Dow AgroSciences LLC, priority 2016, dated 2019).
